Key:
[1] = test system: pylorus ligature ulcer; experiment: Protective action on pylorus ligature ulcer formation; assay type: in vivo, Sprague-Dawley strain male rats; conditions: for Death Rate / Perforating Ulcers / Ulcer Index (mean value ± standard deviation) / Percent Inhibition: in the duodenum; for Ulcer Index (mean value ± standard deviation): scale 0 to 5, control 4.0 ± 1.3; for Percent Inhibition: ulcer index
Experimental: The pylorus of Sprague-Dawley strain male rats weighing 150-200 g that had abstained from food, but not water for 48 hours was ligatured under ether anethsia. Each rat was allowed to stand individually in a cage for 16 hours without food and water. At the end of this term, the rats were sacrificed by an overdose of diethyl ether. The stomach was taken out of each animal and the gastric mucosa was obserbed by the use of a dissecting microscope.
Ulcers observed in the gastric mucosa were evaluated on a scale of from 0 to 5 defined as follows.
0: No lesion was observed.
1: Hemorrhage and/or erosion were observed.
2: One to five small ulcers less than 3 mm in diameter were observed.
3: Six or more small ulcers and/or a large ulcer more than 3 mm in diameter were observed.
4: Two or more large ulcers were observed.
5: At least one perforating ulcer was observed.
A test compound was administered as an aqueous solution in an equivalent molar of hydrochloric acid in the duodenum immediately after the pylorus ligature.

[2] = test system: stress-induced ulcer; experiment: Inhibitory action on stress-induced ulcer formation; assay type: in vivo, Sprague-Dawley strain male rats; conditions: oral; for dose dependence of inhibiting action on ulcer formation: 30 mg/kg and above; for Ulcer Index (mean value ± standard deviation): Ulcer Index = a + b/10, control 6.1 ± 2.3; for Number of Ulcers/Stomach, 3 mm or larger: control 1.3; for Number of Ulcers/Stomach, up to 3 mm: control 45.6; for Percent Inhibition: ulcer index
Experimental: Sprague-Dawley strain male rats weighing 200-250 g were deprived of food for 24 hours, and then laid down on their backs on a screen and fixed by fastening their limbs with a strand. The fixed rats were submerged in water bath to the depth of ensiform process with their hind legs dipped first. Sixteen hours after the submerge, the rats were brought out from the bath and their stomachs were taken out. After light fixation with a 1% formalin aqueous solution, the stomach of each animal was cut open along their greater curvature and gastric mucosa was observed through a dissecting microscope. The ulcer was evaluated on an ulcer index calculated from the following equation: […]
wherein a is the number of big ulcers more than 3 mm in diameter and b is the number of small ulcers up to 3 mm in diameter.
A test compound was orally administered as a suspension in a 1% gum arabic aqueous solution, 10 minutes before exposure to stress.

[3] = test system: acetic acid ulcer; experiment: Action on the healing of acetic acid ulcers; assay type: in vivo, Sprague-Dawley strain male rats; conditions: oral; for Percent healing Rate / Ulcer Index (mean number ± standard deviation), product of major and minor axis: once a day for 15 days; for Ulcer Index (mean number ± standard deviation), product of major and minor axis: control 12.5 ± 6.0
Experimental: Sprague-Dawley strain male rate (8 weeks old) were etherized and their abdominal parts were cut open. A 20% acetic acid aqueous solution (0.05 ml) was injected into subserosal layer in the glandular part of stomach of each rat and the incisions were sutured.
From the fourth day after the operation, each rat was orally administered with 1-(3'-dimethylaminopropoxy)-2,4-bis(3"-methylbenzamido)-benzene in a dose of 10 mg/kg or 40 mg/kg. body weight as an aqueous solution in an equivalent molar of hydrochloric acid once a day for 15 days. On the day after the last administration, the rats were sacrificed by an overdose of diethyl ether and the stomach of each of the rats was taken out. After light fixation of the stomach with a 1% formalin solution, it was cut open along the greater curvature and the gastric mucosa was observed through a dissecting microscope. The ulcer was evaluated as the product (mm^2) of the major axis and the minor axis of the ulcer.

[4] = Acute toxicity in mice; conditions: mouse, in vivo, po

Cc1ccccc1C(=O)Nc1ccc(OCCCN(C)C)c(NC(=O)c2ccccc2C)c1 [1-(3'-dimethylaminopropoxy)-2,4-bis(2"-methylbenzamido)-benzene]
Death Rate ([1]; 50 mg/kg): 20%
Perforating Ulcers ([1]; 50 mg/kg): 20%
Ulcer Index (mean value ± standard deviation) ([1]; 50 mg/kg): 3.2 ± 1.3
Percent Inhibition ([1]; 50 mg/kg): 20%
inhibition of death of rats and formation of perforating ulcers ([1]; 100 mg/kg or 200 mg/kg): completely inhibited the death of rats and the formation of perforating ulcers
prevention of formation of gastric ulcers ([1]; 100 mg/kg or 200 mg/kg): prevented the formation of gastric ulcers on a statistically significant level
Death Rate ([1]; 100 mg/kg): 0%
Perforating Ulcers ([1]; 100 mg/kg): 0%
Ulcer Index (mean value ± standard deviation) ([1]; 100 mg/kg): 2.6 ± 0.5
Percent Inhibition ([1]; 100 mg/kg): 35%
Death Rate ([1]; 200 mg/kg): 0%
Perforating Ulcers ([1]; 200 mg/kg): 0%
Ulcer Index (mean value ± standard deviation) ([1]; 200 mg/kg): 0
Percent Inhibition ([1]; 200 mg/kg): 100%
dose dependence of inhibiting action on ulcer formation [2]: inhibiting action increases as the dose level heightens
inhibition of the formation of ulcer ([2]; 30 mg/kg body weight): 50-60%
Ulcer Index (mean value ± standard deviation) ([2]; 30 mg/kg): 2.8 ± 0.8
Number of Ulcers/Stomach, 3 mm or larger ([2]; 30 mg/kg): 0.6
Number of Ulcers/Stomach, up to 3 mm ([2]; 30 mg/kg): 23.4
Percent Inhibition ([2]; 30 mg/kg): 54%
Ulcer Index (mean value ± standard deviation) ([2]; 45 mg/kg): 2.0 ± 0.6
Number of Ulcers/Stomach, 3 mm or larger ([2]; 45 mg/kg): 0.2
Number of Ulcers/Stomach, up to 3 mm ([2]; 45 mg/kg): 16.8
Percent Inhibition ([2]; 45 mg/kg): 67%
Ulcer Index (mean value ± standard deviation) ([2]; 67 mg/kg): 1.0 ± 0.9
Number of Ulcers/Stomach, 3 mm or larger ([2]; 67 mg/kg): 0.2
Number of Ulcers/Stomach, up to 3 mm ([2]; 67 mg/kg): 8.8
Percent Inhibition ([2]; 67 mg/kg): 84%
Ulcer Index (mean value ± standard deviation) ([2]; 100 mg/kg): 0.4 ± 0.5
Number of Ulcers/Stomach, 3 mm or larger ([2]; 100 mg/kg): 0
Number of Ulcers/Stomach, up to 3 mm ([2]; 100 mg/kg): 3.8
Percent Inhibition ([2]; 100 mg/kg): 93%

Cc1cccc(C(=O)Nc2ccc(OCCCN(C)C)c(NC(=O)c3cccc(C)c3)c2)c1 [1-(3'-dimethylaminopropoxy)-2,4-bis(3"-methylbenzamido)-benzene]
Death Rate ([1]; 50 mg/kg): 33%
Perforating Ulcers ([1]; 50 mg/kg): 50%
Ulcer Index (mean value ± standard deviation) ([1]; 50 mg/kg): 4.0 ± 1.1
Percent Inhibition ([1]; 50 mg/kg): 0%
inhibition of death of rats and formation of perforating ulcers ([1]; 100 mg/kg or 200 mg/kg): completely inhibited the death of rats and the formation of perforating ulcers
prevention of formation of gastric ulcers ([1]; 100 mg/kg or 200 mg/kg): prevented the formation of gastric ulcers on a statistically significant level
Death Rate ([1]; 100 mg/kg): 0%
Perforating Ulcers ([1]; 100 mg/kg): 0%
Ulcer Index (mean value ± standard deviation) ([1]; 100 mg/kg): 2.0 ± 1.4
Percent Inhibition ([1]; 100 mg/kg): 50%
Death Rate ([1]; 200 mg/kg): 0%
Perforating Ulcers ([1]; 200 mg/kg): 0%
Ulcer Index (mean value ± standard deviation) ([1]; 200 mg/kg): 1.0 ± 1.1
Percent Inhibition ([1]; 200 mg/kg): 75%
dose dependence of inhibiting action on ulcer formation [2]: inhibiting action increases as the dose level heightens
inhibition of the formation of ulcer ([2]; 30 mg/kg body weight): 50-60%
Ulcer Index (mean value ± standard deviation) ([2]; 30 mg/kg): 2.6 ± 2.1
Number of Ulcers/Stomach, 3 mm or larger ([2]; 30 mg/kg): 0.5
Number of Ulcers/Stomach, up to 3 mm ([2]; 30 mg/kg): 21.4
Percent Inhibition ([2]; 30 mg/kg): 57%
Ulcer Index (mean value ± standard deviation) ([2]; 45 mg/kg): 2.0 ± 1.7
Number of Ulcers/Stomach, 3 mm or larger ([2]; 45 mg/kg): 1.0
Number of Ulcers/Stomach, up to 3 mm ([2]; 45 mg/kg): 8.7
Percent Inhibition ([2]; 45 mg/kg): 67%
Ulcer Index (mean value ± standard deviation) ([2]; 67 mg/kg): 1.5 ± 2.7
Number of Ulcers/Stomach, 3 mm or larger ([2]; 67 mg/kg): 0.8
Number of Ulcers/Stomach, up to 3 mm ([2]; 67 mg/kg): 7.3
Percent Inhibition ([2]; 67 mg/kg): 75%
Ulcer Index (mean value ± standard deviation) ([2]; 100 mg/kg): 2.0 ± 2.1
Number of Ulcers/Stomach, 3 mm or larger ([2]; 100 mg/kg): 0.8
Number of Ulcers/Stomach, up to 3 mm ([2]; 100 mg/kg): 10.6
Percent Inhibition ([2]; 100 mg/kg): 67%
ulcer index in comparison with control ([3]; 10 mg/kg and 40 mg/kg): on a statistically significant lower level in comparison with those of the control
Percent healing Rate ([3]; 10 mg/kg): 45%
Ulcer Index (mean number ± standard deviation), product of major and minor axis ([3]; 10 mg/kg): 6.9 ± 5.6 mm^2
Percent healing Rate ([3]; 40 mg/kg): 42%
Ulcer Index (mean number ± standard deviation), product of major and minor axis ([3]; 40 mg/kg): 7.2 ± 5.1 mm^2

Cc1ccccc1C(=O)Nc1ccc(C(=O)NCCCN(C)C)c(NC(=O)c2ccccc2C)c1 [1-[N-(3'-dimethylaminopropyl)-carbamoyl]-2,4-bis(2"-methylbenzamido)-benzene]
inhibition of death of rats and formation of perforating ulcers ([1]; 200 mg/kg): completely inhibited the death of rats and the formation of perforating ulcers
prevention of formation of gastric ulcers ([1]; 200 mg/kg): prevented the formation of gastric ulcers on a statistically significant level
Death Rate ([1]; 200 mg/kg): 0%
Perforating Ulcers ([1]; 200 mg/kg): 0%
Ulcer Index (mean value ± standard deviation) ([1]; 200 mg/kg): 1.4 ± 1.4
Percent Inhibition ([1]; 200 mg/kg): 65%
inhibition of the formation of ulcer ([2]; 100 mg/kg body weight): 50-60%
Ulcer Index (mean value ± standard deviation) ([2]; 100 mg/kg): 3.0 ± 1.0
Number of Ulcers/Stomach, 3 mm or larger ([2]; 100 mg/kg): 0.8
Number of Ulcers/Stomach, up to 3 mm ([2]; 100 mg/kg): 23.4
Percent Inhibition ([2]; 100 mg/kg): 51%
LD50 [4]: > 11000 mg/kg

Cc1cccc(C(=O)Nc2ccc(C(=O)NCCCN(C)C)c(NC(=O)c3cccc(C)c3)c2)c1 [1-[N-(3'-dimethylaminopropyl)-carbamoyl]-2,4-bis(3"-methylbenzamido)-benzene]
inhibition of death of rats and formation of perforating ulcers ([1]; 200 mg/kg): completely inhibited the death of rats and the formation of perforating ulcers
prevention of formation of gastric ulcers ([1]; 200 mg/kg): prevented the formation of gastric ulcers on a statistically significant level
Death Rate ([1]; 200 mg/kg): 0%
Perforating Ulcers ([1]; 200 mg/kg): 0%
Ulcer Index (mean value ± standard deviation) ([1]; 200 mg/kg): 2.5 ± 1.4
Percent Inhibition ([1]; 200 mg/kg): 38%
inhibition of the formation of ulcer ([2]; 100 mg/kg body weight): 50-60%
Ulcer Index (mean value ± standard deviation) ([2]; 100 mg/kg): 2.4 ± 2.1
Number of Ulcers/Stomach, 3 mm or larger ([2]; 100 mg/kg): 0.6
Number of Ulcers/Stomach, up to 3 mm ([2]; 100 mg/kg): 17.6
Percent Inhibition ([2]; 100 mg/kg): 61%

— patent US4092431A, “Pharmaceutical composition and method of the use thereof” (Chugai Seiyaku Kabushiki Kaisha, priority 1977, dated 1978)
